According to patent US4091006A, “Esters of 3-hydroxyindone compounds” (priority 1975, dated 1978):

system: adults and nymphal stages of the two-spotted mite; test: Mite Foliage Spray Test; format: in vivo, Tetranychus urticae (Koch); conditions: 4 days
Text: (§1) The test procedures were as follows:
(§2) Compositions were rated on the basis of percent kill with a rating of 1 indicating no mortality; 3 signifying an approximately 50% mortality and 5 indicating 100% mortality at the indicated dosage.

Row | Compound | Mite Adult rating
1 | CCCCC(CC)COC(=O)OC1=C(c2c(C)cc(C)cc2C)C(=O)c2ccccc21 (stereo not drawn) [2-(2',4',6'-Trimethylphenyl)-3-(2-ethylhexyloxycarbonyloxy)indone] | 5 (100% mortality)
2 | Cc1cc(C)c(C2=C(OC(=O)C3CCCCC3)c3ccccc3C2=O)c(C)c1 [2-(2',4',6'-Trimethylphenyl)-3-(cyclohexanoyloxy)indone] | 5 (100% mortality)
3 | COCC(=O)OC1=C(c2c(C)cc(C)cc2C)C(=O)c2ccccc21 [2-(2',4',6'-Trimethylphenyl)-3-(methoxyacetoxy)indone] | 5 (100% mortality)
4 | 2-(2',4',6'-Trimethylphenyl)-3-(neodecanoyloxy)indone | 5 (100% mortality)
5 | CCCCCCCCSC(=O)OC1=C(c2c(C)cc(C)cc2C)C(=O)c2ccccc21 [2-(2',4',6'-Trimethylphenyl)-3-(octylthiocarbonyloxy)indone] | 5 (100% mortality)
6 | CCCCCCCCCCCCOC(=O)OC1=C(c2c(C)cc(C)cc2C)C(=O)c2ccccc21 [2-(2',4',6'-Trimethylphenyl)-3-(dodecyloxycarbonyloxy)indone] | 5 (100% mortality)

system: Tomato; test: Phytotoxicity, tomato; conditions: 2500 ppm, 10 days

Row | Compound | Phytotoxicity Rating, Tomato
7 | CCCCC(CC)COC(=O)OC1=C(c2c(C)cc(C)cc2C)C(=O)c2ccccc21 (stereo not drawn) [2-(2',4',6'-Trimethylphenyl)-3-(2-ethylhexyloxycarbonyloxy)indone] | 1
8 | Cc1cc(C)c(C2=C(OC(=O)C3CCCCC3)c3ccccc3C2=O)c(C)c1 [2-(2',4',6'-Trimethylphenyl)-3-(cyclohexanoyloxy)indone] | 2
9 | COCC(=O)OC1=C(c2c(C)cc(C)cc2C)C(=O)c2ccccc21 [2-(2',4',6'-Trimethylphenyl)-3-(methoxyacetoxy)indone] | 1
10 | 2-(2',4',6'-Trimethylphenyl)-3-(neodecanoyloxy)indone | 1
11 | CCCCCCCCSC(=O)OC1=C(c2c(C)cc(C)cc2C)C(=O)c2ccccc21 [2-(2',4',6'-Trimethylphenyl)-3-(octylthiocarbonyloxy)indone] | 1
12 | CCCCCCCCCCCCOC(=O)OC1=C(c2c(C)cc(C)cc2C)C(=O)c2ccccc21 [2-(2',4',6'-Trimethylphenyl)-3-(dodecyloxycarbonyloxy)indone] | 1

system: Perennial rye grass, crabgrass, red root pigweed, mustard; test: Preliminary Herbicide Seed Germination Test; conditions: rating/maximum 15: 100 ppm only, crabgrass omitted, each rated 1 (no injury) to 5 (no seedlings emerged)
Text: The thus-prepared stock suspension contained 0.5 percent by weight of compound. The test concentrations employed in the tests described hereinbelow were obtained by diluting the stock suspension with water. The test procedures were as follows:
The following seeds were used in this test:
Crabgrass -- Digitaria san-
Mustard -- Brassica pincea var.
Each of above mixtures is rolled separately in 5 gallon containers for approximately one-half hour on ball mill to insure uniform mixing of seeds and soil. For each compound four 3-inch pots are filled with soil to within 11/2 inches of top of pots. To 2 of these pots are added 70 cc. of Mixture I. To the remaining 2 pots are added 70 cc. of Mixture II. The seed-soil mixture is tamped firmly, and the pots are removed to the greenhouse and watered lightly. About 2 hours after planting, 25 milliliters of the test formulation were added to each of 2 pots for each soil-seed mixture; i.e., one replicate of each seed mixture per concentration. An equal volume of a water solution containing acetone and an emulsifier in the same concentration as the herbicidal mixture but without the candidate herbicide is also added to each of the soil-seed mixtures. These pots are used as check or control units. The test compounds are formulated by standard procedure of solution in acetone, addition of an emulsifier, and dilution with water. Tests were conducted on all compositions at low concentration (100 ppm.). Certain compositions were also tested at high concentration (1000 ppm). The pots were held in the greenhouse and watered lightly until results were taken. Ten to twelve days after application of chemical, injury is noted for each species by comparing treated vs. untreated pots. Ratings are made at both the high and the low concentrations (1000 ppm and 100 ppm) according to the following designations:
4 = few seedlings emerged and/or very severe stunting
3 = moderate reduction in stand and/or moderate stunting
2 = very slight reduction in stand and/or slight stunting
1 = no injury; seedlings appear no different with respect to stand or growth than untreated controls
Accordingly, the maximum rating for one test seed species tested at both high and low concentration is 10 and the maximum possible total preemergence rating is 40 (10 for each of the four test seed species). […] In some tests the crabgrass experiment was omitted. In these tests the maximum total rating for species tested at both high and low concentrations is 30 and 15 for species tested only at low concentrations.

Row | Compound | Herbicide (total preemergence rating)
13 | COCC(=O)OC1=C(c2c(C)cc(C)cc2C)C(=O)c2ccccc21 [2-(2',4',6'-Trimethylphenyl)-3-(methoxyacetoxy)indone] | 15/15
14 | CCCCCCCCSC(=O)OC1=C(c2c(C)cc(C)cc2C)C(=O)c2ccccc21 [2-(2',4',6'-Trimethylphenyl)-3-(octylthiocarbonyloxy)indone] | 11/15

same assay, conditions: rating/maximum 20: 100 ppm only, four species, each rated 1 (no injury) to 5 (no seedlings emerged)

Row | Compound | Herbicide (total preemergence rating)
15 | CCCCC(CC)COC(=O)OC1=C(c2c(C)cc(C)cc2C)C(=O)c2ccccc21 (stereo not drawn) [2-(2',4',6'-Trimethylphenyl)-3-(2-ethylhexyloxycarbonyloxy)indone] | 15/20
16 | 2-(2',4',6'-Trimethylphenyl)-3-(neodecanoyloxy)indone | 10/20
17 | CCCCCCCCCCCCOC(=O)OC1=C(c2c(C)cc(C)cc2C)C(=O)c2ccccc21 [2-(2',4',6'-Trimethylphenyl)-3-(dodecyloxycarbonyloxy)indone] | 17/20

same assay, conditions: rating/maximum 40: 100 and 1000 ppm, four species, each rated 1 (no injury) to 5 (no seedlings emerged), 10-12 days

Row | Compound | Herbicide (total preemergence rating)
18 | Cc1cc(C)c(C2=C(OC(=O)C3CCCCC3)c3ccccc3C2=O)c(C)c1 [2-(2',4',6'-Trimethylphenyl)-3-(cyclohexanoyloxy)indone] | 31/40

system: Corn; test: Phytotoxicity, corn; conditions: 2500 ppm, 10 days
Experimental: Experiments were also conducted to determine the phytotoxicity of representative enol ester compositions with respect to healthy fresh plants. […] The test plants were sprayed in accordance with the procedure described above for the Mite Foliage Spray Test so as to deliver approximately 100 milliliters of test solution to the leaves of each plant tested. The sprayed plants and controls were set aside for approximately 1 hour to allow the solutions to dry and were then placed in the greenhouse. After 10 days the plants were visually inspected to determine the extent of foliage injury. A rating of 1 indicates no perceptible injury; 5 indicates the plant was dead and ratings of 2, 3 and 4 indicate intermediate degrees of injury based upon the number and extent to which leaves were injured.

Row | Compound | Phytotoxicity Rating, Corn
19 | CCCCC(CC)COC(=O)OC1=C(c2c(C)cc(C)cc2C)C(=O)c2ccccc21 (stereo not drawn) [2-(2',4',6'-Trimethylphenyl)-3-(2-ethylhexyloxycarbonyloxy)indone] | 2
20 | Cc1cc(C)c(C2=C(OC(=O)C3CCCCC3)c3ccccc3C2=O)c(C)c1 [2-(2',4',6'-Trimethylphenyl)-3-(cyclohexanoyloxy)indone] | 1
21 | COCC(=O)OC1=C(c2c(C)cc(C)cc2C)C(=O)c2ccccc21 [2-(2',4',6'-Trimethylphenyl)-3-(methoxyacetoxy)indone] | 1
22 | 2-(2',4',6'-Trimethylphenyl)-3-(neodecanoyloxy)indone | 2
23 | CCCCCCCCSC(=O)OC1=C(c2c(C)cc(C)cc2C)C(=O)c2ccccc21 [2-(2',4',6'-Trimethylphenyl)-3-(octylthiocarbonyloxy)indone] | 1
24 | CCCCCCCCCCCCOC(=O)OC1=C(c2c(C)cc(C)cc2C)C(=O)c2ccccc21 [2-(2',4',6'-Trimethylphenyl)-3-(dodecyloxycarbonyloxy)indone] | 2

system: Bean; test: Phytotoxicity, bean; conditions: 2500 ppm, 10 days

Row | Compound | Phytotoxicity Rating, Bean
25 | CCCCC(CC)COC(=O)OC1=C(c2c(C)cc(C)cc2C)C(=O)c2ccccc21 (stereo not drawn) [2-(2',4',6'-Trimethylphenyl)-3-(2-ethylhexyloxycarbonyloxy)indone] | 1
26 | Cc1cc(C)c(C2=C(OC(=O)C3CCCCC3)c3ccccc3C2=O)c(C)c1 [2-(2',4',6'-Trimethylphenyl)-3-(cyclohexanoyloxy)indone] | 1
27 | COCC(=O)OC1=C(c2c(C)cc(C)cc2C)C(=O)c2ccccc21 [2-(2',4',6'-Trimethylphenyl)-3-(methoxyacetoxy)indone] | 1
28 | 2-(2',4',6'-Trimethylphenyl)-3-(neodecanoyloxy)indone | 2
29 | CCCCCCCCSC(=O)OC1=C(c2c(C)cc(C)cc2C)C(=O)c2ccccc21 [2-(2',4',6'-Trimethylphenyl)-3-(octylthiocarbonyloxy)indone] | 1
30 | CCCCCCCCCCCCOC(=O)OC1=C(c2c(C)cc(C)cc2C)C(=O)c2ccccc21 [2-(2',4',6'-Trimethylphenyl)-3-(dodecyloxycarbonyloxy)indone] | 1

system: eggs of the two-spotted mite; test: Fumigant toxicity, Method 1 (deposit in pie plate); format: in vivo; conditions: deposit approx. 160 μg per square cm, 4 days
Experimental: (§3) Two methods were used to evaluate fumigant properties:
Method 1: Fifty mg. of each compound were dissolved in 5 ml. of acetone and poured into a 20 cm. (bottom diameter) Pyrex No. 210 pie plate. The acetone was allowed to evaporate leaving a deposit of approximately 160 μg. per square cm. The plate was then placed in the bottom of a 50 pound metal lard container (about 30 cm. in diameter and 34 cm. high). Two excised bean plants, held in a 250 ml. Erlenmeyer flask containing 100 ml. of tap water and infested with eggs of the two-spotted mite, were placed in the center of the pie plate. The container was held in the insectary (temperature 80±5° F., 50±5% R. H.) for four days before mortality determinations were made.

Row | Compound | Fumigant Toxicity Method 1
31 | CCCCC(CC)COC(=O)OC1=C(c2c(C)cc(C)cc2C)C(=O)c2ccccc21 (stereo not drawn) [2-(2',4',6'-Trimethylphenyl)-3-(2-ethylhexyloxycarbonyloxy)indone] | 1
32 | Cc1cc(C)c(C2=C(OC(=O)C3CCCCC3)c3ccccc3C2=O)c(C)c1 [2-(2',4',6'-Trimethylphenyl)-3-(cyclohexanoyloxy)indone] | 1
33 | COCC(=O)OC1=C(c2c(C)cc(C)cc2C)C(=O)c2ccccc21 [2-(2',4',6'-Trimethylphenyl)-3-(methoxyacetoxy)indone] | 1
34 | 2-(2',4',6'-Trimethylphenyl)-3-(neodecanoyloxy)indone | 1
35 | CCCCCCCCSC(=O)OC1=C(c2c(C)cc(C)cc2C)C(=O)c2ccccc21 [2-(2',4',6'-Trimethylphenyl)-3-(octylthiocarbonyloxy)indone] | 1
36 | CCCCCCCCCCCCOC(=O)OC1=C(c2c(C)cc(C)cc2C)C(=O)c2ccccc21 [2-(2',4',6'-Trimethylphenyl)-3-(dodecyloxycarbonyloxy)indone] | 1

system: egg forms of the two-spotted mite; test: Fumigant toxicity, Method 2 (treated plants near untreated infested plants); format: in vivo; conditions: 500 ppm dip, 4 days
Experimental: as §3
Method 2: Excised bean plants infested with egg forms of the two-spotted mite were dipped in an aqueous preparation (500 ppm) of the test compound. The treated plants were transferred to 250 ml. Erlenmeyer flasks containing 100 ml. of tap water. Four flasks holding treated plants were evenly spaced around a similar flask in which were placed untreated mite-infested plants so that the leaves of the treated foliage were in close proximity (1-3 inches) to the untreated plants. Four days later mortality determinations were made.

Row | Compound | Fumigant Toxicity Method 2
37 | CCCCC(CC)COC(=O)OC1=C(c2c(C)cc(C)cc2C)C(=O)c2ccccc21 (stereo not drawn) [2-(2',4',6'-Trimethylphenyl)-3-(2-ethylhexyloxycarbonyloxy)indone] | 1
38 | Cc1cc(C)c(C2=C(OC(=O)C3CCCCC3)c3ccccc3C2=O)c(C)c1 [2-(2',4',6'-Trimethylphenyl)-3-(cyclohexanoyloxy)indone] | 1
39 | COCC(=O)OC1=C(c2c(C)cc(C)cc2C)C(=O)c2ccccc21 [2-(2',4',6'-Trimethylphenyl)-3-(methoxyacetoxy)indone] | 1
40 | 2-(2',4',6'-Trimethylphenyl)-3-(neodecanoyloxy)indone | 1
41 | CCCCCCCCSC(=O)OC1=C(c2c(C)cc(C)cc2C)C(=O)c2ccccc21 [2-(2',4',6'-Trimethylphenyl)-3-(octylthiocarbonyloxy)indone] | 1
42 | CCCCCCCCCCCCOC(=O)OC1=C(c2c(C)cc(C)cc2C)C(=O)c2ccccc21 [2-(2',4',6'-Trimethylphenyl)-3-(dodecyloxycarbonyloxy)indone] | 1

system: egg of the two-spotted mite; test: Mite Ovicide Test; format: in vivo, Tetranychus urticae (Koch); conditions: spray on eggs, 4 days
Text: as §1
The plants were allowed to dry thoroughly.
as §2

Row | Compound | Mite Ova rating
43 | CCCCC(CC)COC(=O)OC1=C(c2c(C)cc(C)cc2C)C(=O)c2ccccc21 (stereo not drawn) [2-(2',4',6'-Trimethylphenyl)-3-(2-ethylhexyloxycarbonyloxy)indone] | 5 (100% mortality)
44 | Cc1cc(C)c(C2=C(OC(=O)C3CCCCC3)c3ccccc3C2=O)c(C)c1 [2-(2',4',6'-Trimethylphenyl)-3-(cyclohexanoyloxy)indone] | 5 (100% mortality)
45 | COCC(=O)OC1=C(c2c(C)cc(C)cc2C)C(=O)c2ccccc21 [2-(2',4',6'-Trimethylphenyl)-3-(methoxyacetoxy)indone] | 5 (100% mortality)
46 | 2-(2',4',6'-Trimethylphenyl)-3-(neodecanoyloxy)indone | 5 (100% mortality)
47 | CCCCCCCCSC(=O)OC1=C(c2c(C)cc(C)cc2C)C(=O)c2ccccc21 [2-(2',4',6'-Trimethylphenyl)-3-(octylthiocarbonyloxy)indone] | 5 (100% mortality)
48 | CCCCCCCCCCCCOC(=O)OC1=C(c2c(C)cc(C)cc2C)C(=O)c2ccccc21 [2-(2',4',6'-Trimethylphenyl)-3-(dodecyloxycarbonyloxy)indone] | 5 (100% mortality)

system: Cotton; test: Phytotoxicity, cotton; conditions: 2500 ppm, 10 days

Row | Compound | Phytotoxicity Rating, Cotton
49 | CCCCC(CC)COC(=O)OC1=C(c2c(C)cc(C)cc2C)C(=O)c2ccccc21 (stereo not drawn) [2-(2',4',6'-Trimethylphenyl)-3-(2-ethylhexyloxycarbonyloxy)indone] | 1
50 | Cc1cc(C)c(C2=C(OC(=O)C3CCCCC3)c3ccccc3C2=O)c(C)c1 [2-(2',4',6'-Trimethylphenyl)-3-(cyclohexanoyloxy)indone] | 2
51 | COCC(=O)OC1=C(c2c(C)cc(C)cc2C)C(=O)c2ccccc21 [2-(2',4',6'-Trimethylphenyl)-3-(methoxyacetoxy)indone] | 1
52 | 2-(2',4',6'-Trimethylphenyl)-3-(neodecanoyloxy)indone | 1
53 | CCCCCCCCSC(=O)OC1=C(c2c(C)cc(C)cc2C)C(=O)c2ccccc21 [2-(2',4',6'-Trimethylphenyl)-3-(octylthiocarbonyloxy)indone] | 1
54 | CCCCCCCCCCCCOC(=O)OC1=C(c2c(C)cc(C)cc2C)C(=O)c2ccccc21 [2-(2',4',6'-Trimethylphenyl)-3-(dodecyloxycarbonyloxy)indone] | 1
